The results in this text go back to ChEMBL document CHEMBL4340507, “Identification of an indol-based multi-target kinase inhibitor through phenotype screening and target fishing using inverse virtual screening approach” (Eur J Med Chem, 2019).

The target of experiment [1] is Fibroblast growth factor receptor 1 (Homo sapiens, UniProt P11362). Nature of the experiment: Inhibition of recombinant human wild-type N-terminal GST-His6-fused FGFR1 C-terminal domain (G400 to R820 residues) expressed in Sf9 insect cells using Poly(Glu:Tyr)4:1 as substrate measured after 60 mins in presence of [gamma-33P]-ATP by scintillation counting method.
Experiment [2] concerns the target RAC-beta serine/threonine-protein kinase (Homo sapiens, UniProt P31751). Nature of the experiment: Inhibition of recombinant human N-terminal GST-His6-fused AKT2 C-terminal domain (A107 to E481 residues) expressed in Sf9 insect cells using GSK3(14-27)tide as substrate measured after 60 mins in presence of [gamma-33P]-ATP by scintillation counting method.
Experiment [3] deals with Vascular endothelial growth factor receptor 2 (Homo sapiens, UniProt P35968). The experiment can be described thus: Inhibition of recombinant human N-terminal GST-fused VEGFR2 C-terminal domain (D807 to V1356 residues) expressed in Sf9 insect cells using Poly(Glu:Tyr)4:1 as substrate measured after 60 mins in presence of [gamma-33P]-ATP by scintillation counting method.

The target in experiment [4] is Rho-associated protein kinase 1 (Homo sapiens, UniProt Q13464). Nature of the experiment: Inhibition of recombinant human ROCK1 measured after 60 mins in presence of [gamma-33P]-ATP by scintillation counting method.
Experiment [5] addresses Platelet-derived growth factor receptor alpha (Homo sapiens, UniProt P16234). The experiment can be described thus: Inhibition of recombinant human wild-type N-terminal GST-His6-fused PDGFR-alpha C-terminal domain (Q551 to L1089 residues) expressed in Sf9 insect cells using TRK-C derived peptide as substrate measured after 60 mins in presence of [gamma-33P]-ATP by scintillation counting method.

Experiment [6] has as its target Hepatocyte growth factor receptor (Homo sapiens, UniProt P08581). The experiment can be described thus: Inhibition of recombinant human wild-type N-terminal GST-His6-fused MET C-terminal domain (K956 to S1390 residues) expressed in Sf9 insect cells using TRK-C derived peptide as substrate measured after 60 mins in presence of [gamma-33P]-ATP by scintillation counting method.

Experiment [7] concerns the target Mitogen-activated protein kinase 3 (Homo sapiens, UniProt P27361). The experiment can be described thus: Inhibition of recombinant human full-length N-terminal GST-His6 fused ERK1 (M1 to P379 residues) expressed in Escherichia coli using RBER-CHKtide as substrate measured after 60 mins in presence of [gamma-33P]-ATP by scintillation counting method.
Another experiment deals with Wee1-like protein kinase (Homo sapiens, UniProt P30291). The experiment can be described thus: Inhibition of recombinant human N-terminal GST-His6-fused WEE1 C-terminal domain (Q36 to Y432 residues) expressed in Sf9 cells using Poly(Ala,Glu,Lys,Tyr)6:2:5:1 as substrate measured after 60 mins in presence of [gamma-33P]-ATP by scintillation counting method.
Another experiment deals with HeLa. Nature of the experiment: Inhibition of ERK phosphorylation in human HeLa cells at 0.1 to 0.6 uM after 24 hrs by FACS analysis. Type of experiment: cell-based.
Experiment [8] has as its target Vascular endothelial growth factor receptor 3 (Homo sapiens, UniProt P35916). The experiment can be described thus: Inhibition of recombinant human N-terminal GST-His6 fused VEGFR3 C-terminal domain (N799 to R1298 residues) expressed in baculovirus infected Sf9 insect cells using Poly(Glu:Tyr)4:1 as substrate measured after 60 mins in presence of [gamma-33P]-ATP by scintillation counting method.

pIC50: −log10 of the molar value. Calls of active or inactive are those of the source. The calls are words filed in the database; no cut-off is given here. Where only a bound is given, the exact number is not on record here.

Chain of Wee1-like protein kinase (P30291 whole entry, the tested form may be a part): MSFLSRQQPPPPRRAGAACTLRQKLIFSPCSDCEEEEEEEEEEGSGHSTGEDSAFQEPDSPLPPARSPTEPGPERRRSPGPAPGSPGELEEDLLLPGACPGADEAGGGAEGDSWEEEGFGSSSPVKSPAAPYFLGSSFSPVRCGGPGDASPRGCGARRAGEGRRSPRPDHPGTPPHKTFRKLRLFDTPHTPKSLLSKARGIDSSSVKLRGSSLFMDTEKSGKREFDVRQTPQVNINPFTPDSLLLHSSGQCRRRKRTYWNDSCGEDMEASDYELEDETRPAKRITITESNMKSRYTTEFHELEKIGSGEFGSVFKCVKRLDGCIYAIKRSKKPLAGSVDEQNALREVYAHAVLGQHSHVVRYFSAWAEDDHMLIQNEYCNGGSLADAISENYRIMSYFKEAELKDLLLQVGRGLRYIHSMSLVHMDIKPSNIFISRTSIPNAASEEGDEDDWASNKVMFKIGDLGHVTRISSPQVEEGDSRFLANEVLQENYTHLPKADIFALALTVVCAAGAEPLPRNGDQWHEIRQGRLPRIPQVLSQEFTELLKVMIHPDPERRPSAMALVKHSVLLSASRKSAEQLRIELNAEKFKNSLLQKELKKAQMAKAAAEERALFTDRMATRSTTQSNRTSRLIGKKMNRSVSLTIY
Chain of Vascular endothelial growth factor receptor 3 (P35916 whole entry, the tested form may be a part): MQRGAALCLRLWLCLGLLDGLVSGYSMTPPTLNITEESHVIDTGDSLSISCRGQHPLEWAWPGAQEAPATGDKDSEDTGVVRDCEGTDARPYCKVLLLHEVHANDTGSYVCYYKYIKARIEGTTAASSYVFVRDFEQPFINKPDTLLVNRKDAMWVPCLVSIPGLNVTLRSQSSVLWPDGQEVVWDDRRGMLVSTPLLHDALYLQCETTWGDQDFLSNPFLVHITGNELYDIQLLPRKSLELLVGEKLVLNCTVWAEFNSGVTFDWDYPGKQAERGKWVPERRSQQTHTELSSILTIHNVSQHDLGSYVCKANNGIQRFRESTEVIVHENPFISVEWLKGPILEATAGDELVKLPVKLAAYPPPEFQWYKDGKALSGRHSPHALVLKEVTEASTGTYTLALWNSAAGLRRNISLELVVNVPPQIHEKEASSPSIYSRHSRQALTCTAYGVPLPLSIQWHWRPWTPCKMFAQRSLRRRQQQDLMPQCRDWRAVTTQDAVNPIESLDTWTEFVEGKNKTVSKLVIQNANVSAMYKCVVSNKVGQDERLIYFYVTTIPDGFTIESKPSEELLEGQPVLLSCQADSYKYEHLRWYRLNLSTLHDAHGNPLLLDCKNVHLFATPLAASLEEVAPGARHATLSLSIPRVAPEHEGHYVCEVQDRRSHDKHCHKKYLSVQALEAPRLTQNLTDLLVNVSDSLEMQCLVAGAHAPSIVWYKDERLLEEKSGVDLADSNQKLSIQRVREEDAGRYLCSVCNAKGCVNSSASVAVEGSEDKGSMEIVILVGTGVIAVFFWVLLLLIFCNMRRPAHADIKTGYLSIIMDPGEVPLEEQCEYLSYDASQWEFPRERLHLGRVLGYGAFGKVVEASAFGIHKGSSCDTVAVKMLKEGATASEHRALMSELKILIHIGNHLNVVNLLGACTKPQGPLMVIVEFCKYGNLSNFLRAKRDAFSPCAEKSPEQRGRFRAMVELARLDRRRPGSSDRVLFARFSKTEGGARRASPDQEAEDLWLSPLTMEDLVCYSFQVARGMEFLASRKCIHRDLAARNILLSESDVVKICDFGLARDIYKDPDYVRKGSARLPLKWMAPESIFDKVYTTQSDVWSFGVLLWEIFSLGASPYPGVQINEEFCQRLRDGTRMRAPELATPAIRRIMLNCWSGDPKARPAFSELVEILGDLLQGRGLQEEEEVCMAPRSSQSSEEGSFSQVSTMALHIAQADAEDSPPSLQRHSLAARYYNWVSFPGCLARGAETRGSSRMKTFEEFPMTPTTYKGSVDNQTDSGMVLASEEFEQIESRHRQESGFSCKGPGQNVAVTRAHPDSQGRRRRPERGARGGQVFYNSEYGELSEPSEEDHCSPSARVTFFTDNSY
Chain of Vascular endothelial growth factor receptor 2 (P35968 whole entry, the tested form may be a part): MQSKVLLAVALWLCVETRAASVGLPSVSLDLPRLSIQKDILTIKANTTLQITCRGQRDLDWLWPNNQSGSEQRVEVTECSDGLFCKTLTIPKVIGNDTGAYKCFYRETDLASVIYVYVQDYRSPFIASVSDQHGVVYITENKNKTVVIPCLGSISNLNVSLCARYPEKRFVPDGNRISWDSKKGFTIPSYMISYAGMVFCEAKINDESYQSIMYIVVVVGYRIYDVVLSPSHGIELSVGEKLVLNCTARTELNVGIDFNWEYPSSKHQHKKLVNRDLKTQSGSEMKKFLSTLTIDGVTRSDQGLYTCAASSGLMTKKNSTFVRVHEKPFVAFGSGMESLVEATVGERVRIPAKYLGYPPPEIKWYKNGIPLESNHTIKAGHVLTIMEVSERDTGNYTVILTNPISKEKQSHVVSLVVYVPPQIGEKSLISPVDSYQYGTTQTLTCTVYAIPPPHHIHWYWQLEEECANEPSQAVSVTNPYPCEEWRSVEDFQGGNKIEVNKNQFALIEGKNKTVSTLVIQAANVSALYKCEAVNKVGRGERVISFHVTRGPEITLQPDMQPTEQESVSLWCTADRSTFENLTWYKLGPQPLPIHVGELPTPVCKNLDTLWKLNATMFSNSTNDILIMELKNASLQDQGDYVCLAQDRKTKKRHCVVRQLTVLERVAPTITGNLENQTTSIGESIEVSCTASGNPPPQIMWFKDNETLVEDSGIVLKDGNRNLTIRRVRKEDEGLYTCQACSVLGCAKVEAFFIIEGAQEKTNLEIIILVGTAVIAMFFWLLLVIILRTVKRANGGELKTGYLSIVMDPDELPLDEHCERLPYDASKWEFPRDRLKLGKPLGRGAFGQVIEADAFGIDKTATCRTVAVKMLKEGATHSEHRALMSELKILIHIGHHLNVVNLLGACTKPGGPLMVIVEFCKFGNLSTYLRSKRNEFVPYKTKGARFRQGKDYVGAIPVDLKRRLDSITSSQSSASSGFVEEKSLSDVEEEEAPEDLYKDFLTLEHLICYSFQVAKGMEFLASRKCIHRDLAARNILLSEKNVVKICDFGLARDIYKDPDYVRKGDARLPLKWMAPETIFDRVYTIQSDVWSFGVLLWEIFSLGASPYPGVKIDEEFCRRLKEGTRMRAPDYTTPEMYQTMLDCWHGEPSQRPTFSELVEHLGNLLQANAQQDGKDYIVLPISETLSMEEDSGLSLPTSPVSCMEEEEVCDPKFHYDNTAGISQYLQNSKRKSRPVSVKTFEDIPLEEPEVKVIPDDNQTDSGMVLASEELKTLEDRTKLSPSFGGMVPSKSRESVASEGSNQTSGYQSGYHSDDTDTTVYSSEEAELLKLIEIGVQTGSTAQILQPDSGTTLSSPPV
Chain of Mitogen-activated protein kinase 3 (P27361 whole entry, the tested form may be a part): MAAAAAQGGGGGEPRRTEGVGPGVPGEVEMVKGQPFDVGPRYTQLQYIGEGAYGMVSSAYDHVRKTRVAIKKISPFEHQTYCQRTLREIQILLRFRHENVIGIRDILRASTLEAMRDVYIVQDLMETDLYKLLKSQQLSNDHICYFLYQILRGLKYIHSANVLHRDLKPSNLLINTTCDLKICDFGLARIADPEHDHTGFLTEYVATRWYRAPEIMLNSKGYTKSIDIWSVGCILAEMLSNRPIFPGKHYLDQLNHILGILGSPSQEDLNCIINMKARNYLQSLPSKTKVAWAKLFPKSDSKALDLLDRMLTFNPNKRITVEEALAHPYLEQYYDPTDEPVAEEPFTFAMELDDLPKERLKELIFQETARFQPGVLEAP
Chain of Platelet-derived growth factor receptor alpha (P16234 whole entry, the tested form may be a part): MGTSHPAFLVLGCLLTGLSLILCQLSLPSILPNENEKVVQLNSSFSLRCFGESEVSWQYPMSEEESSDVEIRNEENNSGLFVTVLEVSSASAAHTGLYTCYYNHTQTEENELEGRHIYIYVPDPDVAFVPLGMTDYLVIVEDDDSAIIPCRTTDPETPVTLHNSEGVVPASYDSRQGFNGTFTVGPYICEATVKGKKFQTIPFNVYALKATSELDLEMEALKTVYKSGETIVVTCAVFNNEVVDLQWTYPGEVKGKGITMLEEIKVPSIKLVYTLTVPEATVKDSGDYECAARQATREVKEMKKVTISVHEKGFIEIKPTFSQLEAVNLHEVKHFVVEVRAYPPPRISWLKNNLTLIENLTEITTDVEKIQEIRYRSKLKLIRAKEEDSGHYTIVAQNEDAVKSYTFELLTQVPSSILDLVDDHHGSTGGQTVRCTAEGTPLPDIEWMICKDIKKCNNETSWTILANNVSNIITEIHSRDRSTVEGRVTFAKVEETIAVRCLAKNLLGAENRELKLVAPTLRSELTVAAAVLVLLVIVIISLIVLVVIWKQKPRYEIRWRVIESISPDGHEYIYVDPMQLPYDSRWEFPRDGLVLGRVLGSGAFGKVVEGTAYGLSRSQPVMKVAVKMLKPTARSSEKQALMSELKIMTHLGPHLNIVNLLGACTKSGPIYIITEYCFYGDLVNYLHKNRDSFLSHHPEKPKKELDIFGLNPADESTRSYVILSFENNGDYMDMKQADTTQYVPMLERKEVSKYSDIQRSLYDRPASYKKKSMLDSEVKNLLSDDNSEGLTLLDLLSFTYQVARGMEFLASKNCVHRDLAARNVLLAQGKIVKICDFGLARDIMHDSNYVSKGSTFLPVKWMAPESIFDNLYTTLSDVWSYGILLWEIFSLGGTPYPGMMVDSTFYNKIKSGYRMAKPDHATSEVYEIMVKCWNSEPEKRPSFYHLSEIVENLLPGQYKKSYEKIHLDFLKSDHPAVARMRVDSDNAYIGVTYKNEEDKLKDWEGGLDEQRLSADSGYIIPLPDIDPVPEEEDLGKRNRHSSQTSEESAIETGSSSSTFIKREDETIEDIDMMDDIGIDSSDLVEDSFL

On to `CN(CCc1ccc(-c2ccccc2)cc1)Cc1cn(C)c2ccc(C(=O)Nc3ccc(F)cc3)cc12`, for which the pIC50 is 4.89 in [1]; 4.68 in experiment [2]; 4.51 in experiment [3]; 4.46 in experiment [4]; 4.32 in [5]; 4.21 in [6]. In addition, the pIC50 in experiment [7] is 4.19; at Wee1-like protein kinase, 4.10; in [8], less than 4.00. Besides, the inhibition result with HeLa was “Active”.
